ChEMBL document CHEMBL5338786, “In Silico-Guided Rational Drug Design and Synthesis of Novel 4-(Thiophen-2-yl)butanamides as Potent and Selective TRPV1 Agonists” (J Med Chem, 2023)
pEC50, pIC50: −log10 of the molar value. Blank lines part the entries; values can stand above or below the compound they belong to. The source made the active and inactive calls.

What was measured:
[1] = molecular target: T1, Transient receptor potential cation channel subfamily A member 1 (Rattus norvegicus, UniProt Q6RI86); assay: Antagonist activity at rat recombinant TRPA1 expressed in HEK293 cells assessed as desensitization by measuring inhibition of allyl isothiocyanate induced intracellular calcium accumulation preincubated for 5 mins followed by allyl isothiocyanate stimulation by Fluo4-AM based assay; format: cell-based
[2] = molecular target: Transient receptor potential cation channel subfamily V member 4 (Rattus norvegicus) (UniProt Q9ERZ8); assay: Agonist activity at rat recombinant TRPV4 expressed in HEK293 cells assessed as increase in intracellular calcium accumulation by measuring efficacy by Fluo4-AM based assay relative to ionomycin; format: cell-based; conditions: filed as agonist
[3] = molecular target: T1, Transient receptor potential cation channel subfamily A member 1; assay: (§1) Agonist activity at rat recombinant TRPA1 expressed in HEK293 cells assessed as increase in intracellular calcium accumulation by Fluo4-AM based assay; format: cell-based
[4] = molecular target: T2, Transient receptor potential cation channel subfamily V member 1 (Homo sapiens, UniProt Q8NER1); assay: Agonist activity at human recombinant TRPV1 expressed in HEK293 cells assessed as increase in intracellular calcium level by Fluo4-AM based assay; format: cell-based
[5] = molecular target: T2, Transient receptor potential cation channel subfamily V member 1; assay: Antagonist activity at human recombinant TRPV1 expressed in HEK293 cells assessed as desensitization by measuring inhibition of capsaicin-induced intracellular calcium accumulation preincubated for 5 mins followed by capsaicin stimulation by Fluo4-AM based assay; format: cell-based
[6] = molecular target: Transient receptor potential cation channel subfamily A member 1 (Rattus norvegicus) (UniProt Q6RI86); assay: Agonist activity at rat recombinant TRPA1 expressed in HEK293 cells assessed as increase in intracellular calcium accumulation by measuring efficacy by Fluo4-AM based assay relative to allyl isothiocyanate; format: cell-based
[7] = molecular target: Transient receptor potential cation channel subfamily A member 1 (Rattus norvegicus) (UniProt Q6RI86); assay: as §1; format: cell-based
HUVEC = assay: Cytotoxicity against HUVEC cells expressing TRPV1 receptors assessed as reduction in cell viability at 0.1 to 10 uM measured after 48 hrs by Alamar Blue assay; format: toxicity, cell-based; conditions: human, dose 0.1-10 µM
HaCaT = assay: Cytotoxicity against human HaCaT cells expressing TRPV1 receptors assessed as reduction in cell viability at 0.1 to 10 uM measured after 48 hrs by Alamar Blue assay; format: toxicity, cell-based; conditions: dose 0.1-10 µM
[8] = molecular target: Transient receptor potential cation channel subfamily V member 4 (Rattus norvegicus, UniProt Q9ERZ8); assay: Antagonist activity at rat recombinant TRPV4 expressed in HEK293 cells assessed as desensitization by measuring inhibition of GSK1016790A induced intracellular calcium accumulation preincubated for 5 mins by Fluo4-AM based assay; format: cell-based
[9] = molecular target: Transient receptor potential cation channel subfamily M member 8 (Rattus norvegicus, UniProt Q8R455); assay: Antagonist activity at rat recombinant TRPM8 expressed in HEK293 cells assessed as desensitization by measuring inhibition of icilin induced intracellular calcium accumulation preincubated for 5 mins by Fluo4-AM based assay; format: cell-based
Mus musculus [10] = assay: Antinociceptive activity against formalin-induced nociception in C57BL/6J mouse assessed as total time of nociceptive response at 0.0015 ug per paw, sc pretreated for 10 min followed by formalin challenge and measured after 20 to 60 mins (reference value: 2.18 +/- 0.183 min); format: functional; conditions: dose 0.0015 µg, time 30-70 min
Mus musculus [11] = assay: Antinociceptive activity against formalin-induced nociception in C57BL/6J mouse assessed as total time of nociceptive response at 0.15 ug per paw, sc pretreated for 10 min followed by formalin challenge and measured after 20 to 60 mins (reference value: 2.18 +/- 0.183 min); format: functional; conditions: dose 0.15 µg, time 30-70 min
Mus musculus [12] = assay: Antinociceptive activity against formalin-induced nociception in C57BL/6J mouse assessed as total time of nociceptive response at 0.0075 ug per paw, sc pretreated for 10 min followed by formalin challenge and measured after 20 to 60 mins (reference value: 2.18 +/- 0.183 min); format: functional; conditions: dose 0.0075 µg, time 30-70 min
[13] = Toxicity in C57BL/6J mouse assessed as alteration in nociceptive threshold at 0.0075 to 0.15 ug per paw, sc measured after 10 mins; format: organism-based; conditions: in vivo, dose 0.0075-0.15 µg

Sequence of Transient receptor potential cation channel subfamily A member 1 (Rattus norvegicus) (Q6RI86 whole entry): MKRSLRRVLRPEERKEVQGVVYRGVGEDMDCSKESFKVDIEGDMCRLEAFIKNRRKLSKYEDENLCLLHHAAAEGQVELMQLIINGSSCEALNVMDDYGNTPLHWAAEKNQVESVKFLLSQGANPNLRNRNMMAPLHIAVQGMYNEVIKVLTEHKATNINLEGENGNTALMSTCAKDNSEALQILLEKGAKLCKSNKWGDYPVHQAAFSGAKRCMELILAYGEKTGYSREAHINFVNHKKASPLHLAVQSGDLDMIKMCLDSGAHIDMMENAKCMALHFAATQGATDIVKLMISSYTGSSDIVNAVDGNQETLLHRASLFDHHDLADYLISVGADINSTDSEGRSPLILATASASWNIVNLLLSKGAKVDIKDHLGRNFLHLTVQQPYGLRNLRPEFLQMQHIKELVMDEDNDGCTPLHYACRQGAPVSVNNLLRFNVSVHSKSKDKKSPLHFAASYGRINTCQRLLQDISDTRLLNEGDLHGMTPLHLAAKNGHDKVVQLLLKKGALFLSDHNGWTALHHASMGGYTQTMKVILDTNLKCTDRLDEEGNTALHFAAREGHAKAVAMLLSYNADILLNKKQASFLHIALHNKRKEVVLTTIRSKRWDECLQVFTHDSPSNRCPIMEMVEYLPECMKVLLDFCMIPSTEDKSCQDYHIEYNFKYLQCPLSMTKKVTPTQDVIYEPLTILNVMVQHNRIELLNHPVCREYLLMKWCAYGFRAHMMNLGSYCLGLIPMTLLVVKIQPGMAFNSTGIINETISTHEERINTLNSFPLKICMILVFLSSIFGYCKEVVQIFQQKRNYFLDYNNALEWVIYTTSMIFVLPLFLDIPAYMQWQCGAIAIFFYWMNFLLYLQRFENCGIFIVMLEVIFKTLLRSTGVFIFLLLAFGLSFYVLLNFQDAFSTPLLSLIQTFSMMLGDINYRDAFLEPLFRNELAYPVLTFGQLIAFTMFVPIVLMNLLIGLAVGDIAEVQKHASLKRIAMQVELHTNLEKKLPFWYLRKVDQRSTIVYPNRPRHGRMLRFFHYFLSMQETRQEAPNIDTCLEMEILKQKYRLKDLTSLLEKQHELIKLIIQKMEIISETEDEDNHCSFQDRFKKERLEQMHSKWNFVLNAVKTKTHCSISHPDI
T1 sequence (Q6RI86 whole entry): as above
Sequence of Transient receptor potential cation channel subfamily V member 4 (Q9ERZ8 whole entry): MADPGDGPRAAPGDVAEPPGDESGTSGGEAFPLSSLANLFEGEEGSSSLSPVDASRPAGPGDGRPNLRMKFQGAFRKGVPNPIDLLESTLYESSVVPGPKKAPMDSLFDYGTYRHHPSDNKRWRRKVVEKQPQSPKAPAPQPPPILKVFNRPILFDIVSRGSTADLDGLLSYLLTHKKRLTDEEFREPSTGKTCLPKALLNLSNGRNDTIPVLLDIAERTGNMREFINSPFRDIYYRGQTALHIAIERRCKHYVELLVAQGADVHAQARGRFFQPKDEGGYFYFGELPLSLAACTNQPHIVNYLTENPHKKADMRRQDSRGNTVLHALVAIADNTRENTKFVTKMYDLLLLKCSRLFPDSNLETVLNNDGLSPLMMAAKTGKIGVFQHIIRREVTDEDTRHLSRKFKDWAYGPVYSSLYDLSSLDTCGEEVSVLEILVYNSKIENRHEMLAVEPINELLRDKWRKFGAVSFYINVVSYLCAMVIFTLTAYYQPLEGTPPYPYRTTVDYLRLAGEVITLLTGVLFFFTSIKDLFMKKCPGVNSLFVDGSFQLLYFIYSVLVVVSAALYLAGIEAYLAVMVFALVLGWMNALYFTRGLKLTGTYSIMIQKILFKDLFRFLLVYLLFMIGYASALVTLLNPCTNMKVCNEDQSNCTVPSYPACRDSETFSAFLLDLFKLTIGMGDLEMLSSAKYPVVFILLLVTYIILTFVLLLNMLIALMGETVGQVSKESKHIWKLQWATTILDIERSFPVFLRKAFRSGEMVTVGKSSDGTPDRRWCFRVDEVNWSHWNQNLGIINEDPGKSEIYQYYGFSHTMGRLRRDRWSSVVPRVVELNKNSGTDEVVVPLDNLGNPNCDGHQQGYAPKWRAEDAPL
T2 sequence (Q8NER1 whole entry): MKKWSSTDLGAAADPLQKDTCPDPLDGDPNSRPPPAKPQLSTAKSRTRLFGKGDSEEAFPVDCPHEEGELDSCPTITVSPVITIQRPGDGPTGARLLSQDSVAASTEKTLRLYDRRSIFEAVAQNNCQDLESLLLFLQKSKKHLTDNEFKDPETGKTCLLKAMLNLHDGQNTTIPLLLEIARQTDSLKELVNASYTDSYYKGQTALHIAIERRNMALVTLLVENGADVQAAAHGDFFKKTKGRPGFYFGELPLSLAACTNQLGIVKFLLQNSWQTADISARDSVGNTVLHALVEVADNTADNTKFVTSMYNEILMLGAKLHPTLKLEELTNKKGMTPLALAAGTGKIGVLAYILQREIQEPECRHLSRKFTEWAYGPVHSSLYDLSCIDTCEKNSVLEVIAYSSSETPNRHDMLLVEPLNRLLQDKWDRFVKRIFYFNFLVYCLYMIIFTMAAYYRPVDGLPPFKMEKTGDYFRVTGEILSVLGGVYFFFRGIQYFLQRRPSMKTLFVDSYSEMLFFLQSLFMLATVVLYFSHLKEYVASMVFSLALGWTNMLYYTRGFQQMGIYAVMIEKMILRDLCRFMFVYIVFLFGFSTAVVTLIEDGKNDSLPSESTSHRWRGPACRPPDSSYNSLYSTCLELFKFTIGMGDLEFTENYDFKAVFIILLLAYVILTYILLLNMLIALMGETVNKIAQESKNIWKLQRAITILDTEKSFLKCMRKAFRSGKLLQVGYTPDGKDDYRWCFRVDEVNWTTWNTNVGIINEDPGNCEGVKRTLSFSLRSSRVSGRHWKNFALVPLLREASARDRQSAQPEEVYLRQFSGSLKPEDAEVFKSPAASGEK
Sequence of Transient receptor potential cation channel subfamily M member 8 (Q8R455 whole entry): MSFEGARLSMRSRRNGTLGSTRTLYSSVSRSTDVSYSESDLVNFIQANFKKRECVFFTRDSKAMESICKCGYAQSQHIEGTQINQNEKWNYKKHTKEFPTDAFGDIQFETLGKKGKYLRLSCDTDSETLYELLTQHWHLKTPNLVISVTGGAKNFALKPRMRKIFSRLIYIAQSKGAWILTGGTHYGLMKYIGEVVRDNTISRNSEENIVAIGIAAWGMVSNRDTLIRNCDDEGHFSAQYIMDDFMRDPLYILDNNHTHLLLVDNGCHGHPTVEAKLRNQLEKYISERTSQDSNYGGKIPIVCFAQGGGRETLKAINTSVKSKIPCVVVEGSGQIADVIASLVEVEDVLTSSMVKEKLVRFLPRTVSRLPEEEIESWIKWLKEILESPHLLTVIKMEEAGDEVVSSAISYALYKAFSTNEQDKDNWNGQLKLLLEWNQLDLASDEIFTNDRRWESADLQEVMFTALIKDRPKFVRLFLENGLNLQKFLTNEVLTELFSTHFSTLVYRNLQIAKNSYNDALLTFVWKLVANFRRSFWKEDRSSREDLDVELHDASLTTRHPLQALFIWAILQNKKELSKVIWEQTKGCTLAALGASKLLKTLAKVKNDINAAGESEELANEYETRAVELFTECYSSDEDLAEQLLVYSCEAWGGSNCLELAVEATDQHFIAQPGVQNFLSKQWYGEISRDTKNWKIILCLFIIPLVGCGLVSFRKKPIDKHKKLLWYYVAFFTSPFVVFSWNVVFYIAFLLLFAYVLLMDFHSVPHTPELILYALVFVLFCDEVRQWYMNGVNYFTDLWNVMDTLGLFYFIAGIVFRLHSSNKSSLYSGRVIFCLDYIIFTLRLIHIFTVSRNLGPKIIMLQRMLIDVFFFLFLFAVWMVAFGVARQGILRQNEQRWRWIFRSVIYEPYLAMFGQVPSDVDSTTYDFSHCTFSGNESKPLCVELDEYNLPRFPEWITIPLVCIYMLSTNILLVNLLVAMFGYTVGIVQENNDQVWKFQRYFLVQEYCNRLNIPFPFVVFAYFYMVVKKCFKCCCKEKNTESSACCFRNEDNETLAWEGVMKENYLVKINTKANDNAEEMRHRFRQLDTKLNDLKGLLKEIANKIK
Sequence of Transient receptor potential cation channel subfamily V member 4 (Rattus norvegicus) (Q9ERZ8 whole entry): as the sequence (Q9ERZ8 whole entry) above

Structure (SMILES): O=C(CCCc1ccc(-c2ccccc2)s1)Nc1ccc(O)cc1
- pIC50 [1]: < 4.30

Structure (SMILES): CC(C)C[C@H](NC(=O)c1cc2ccccc2s1)C(=O)N1CCN(C(=O)[C@H](CO)NS(=O)(=O)c2ccc(Cl)cc2Cl)CC1
- Efficacy [2]: 88.5%

Structure (SMILES): COc1ccc(CNC(=O)CCCc2ccc(I)s2)cc1
- pIC50 [1]: < 4.00

Structure (SMILES): O=C(CCCc1ccccc1)Nc1ccc(O)cc1
- pIC50 [1]: < 5.00

Structure (SMILES): COc1ccc(CNC(=O)CCCc2ccccc2)cc1
- pIC50 [1]: < 4.00

Structure (SMILES): O=C(CCCc1ccc(-c2ccccc2)s1)NCc1ccc(O)cc1
- pIC50 [1]: < 4.30

Structure (SMILES): O=C(CCCc1ccc(-c2cccnc2)s1)Nc1ccc(O)cc1
- pIC50 [1]: < 4.00

Structure (SMILES): O=C(CCCc1ccc(-c2ccccc2)s1)NCc1ccccc1
- pIC50 [1]: < 4.00

Structure (SMILES): COc1cc(CNC(=O)CCCc2ccc(-c3cccnc3)s2)ccc1O
- pIC50 [1]: < 4.00
- Activity (HUVEC): Non-Toxic
- Activity (HaCaT): Non-Toxic
- pIC50 [8]: < 4.00
- pIC50 [9]: < 4.00
- Time (Mus musculus [10]): 0.758 min
- Time (Mus musculus [11]): 0.618 min
- Time (Mus musculus [12]): 1.95 min
- Activity [13]: Non-Toxic

Structure (SMILES): O=C(CCCc1cccs1)NCc1ccccc1
- pIC50 [1]: < 4.00

Structure (SMILES): O=C(CCCc1ccc(I)s1)NCc1ccccc1
- pIC50 [1]: < 4.00

Structure (SMILES): COc1cc(CNC(=O)CCCc2ccc(I)s2)ccc1O
- pIC50 [1]: < 4.30
- Activity (HUVEC): Non-Toxic
- Activity (HaCaT): Non-Toxic
- pIC50 [8]: < 4.30
- pIC50 [9]: 4.77
- Activity [13]: Non-Toxic

Structure (SMILES): O=C(CCCc1ccc(I)s1)NCc1ccc(O)cc1
- pIC50 [1]: < 4.00

Structure (SMILES): O=C(CCCc1ccccc1)NCc1ccc(O)cc1
- pIC50 [1]: < 4.00

The next lines start with results.

- pEC50 [3]: 4.57
Structure (SMILES): COc1cc(CNC(=O)CCCc2ccccc2)ccc1O
- pIC50 [1]: 4.35

- pEC50 [3]: 4.97
Structure (SMILES): O=C(CCCc1ccccc1)NCc1ccc(Cl)c(Cl)c1
- pIC50 [1]: 4.92

- pEC50 [3]: 4.92
Structure (SMILES): O=C(CCCc1ccc(-c2ccccc2)s1)NCc1ccc(Cl)c(Cl)c1
- pIC50 [1]: < 4.30

- pEC50 [4]: 5.58
- Efficacy [6]: < 10%
- Activity [7]: inactive
Structure (SMILES): O=C(CCCc1ccccc1)NCCc1ccc(O)c(O)c1
- pIC50 [5]: 5.23
- pIC50 [1]: < 5.00

- pEC50 [3]: 4.52
Structure (SMILES): O=C(CCCc1ccc(I)s1)Nc1ccc(O)cc1
- pIC50 [1]: 4.36

- pEC50 [4]: < 4.30
- Efficacy [6]: 21%
- pEC50 [3]: < 4.30
Structure (SMILES): COc1ccc(CNC(=O)CCCc2ccc(-c3cccnc3)s2)cc1
- pIC50 [5]: < 4.30
- pIC50 [1]: < 4.30

- pEC50 [4]: < 5.00
- Efficacy [6]: < 10%
- Activity [7]: inactive
Structure (SMILES): O=C(CCCc1ccc(-c2cccnc2)s1)NCCc1ccc(O)c(O)c1
- pIC50 [5]: < 5.00
- pIC50 [1]: < 4.00

- pEC50 [4]: 5.94
- Efficacy [6]: < 10%
- Activity [7]: inactive
Structure (SMILES): O=C(CCCc1ccc(I)s1)NCCc1ccc(O)c(O)c1
- pIC50 [5]: 6.34
- pIC50 [1]: < 4.00

- pEC50 [3]: < 4.30
Structure (SMILES): O=C(CCCc1ccc(I)s1)NCc1ccc(Cl)c(Cl)c1
- pIC50 [1]: 4.72

- pEC50 [3]: 4.98
Structure (SMILES): O=C(CCCc1ccc(-c2cccnc2)s1)NCc1ccc(Cl)c(Cl)c1
- pIC50 [1]: < 4.30

- pEC50 [4]: < 4.30
- Efficacy [6]: < 10%
- Activity [7]: inactive
Structure (SMILES): O=C(CCCc1ccccc1)NCc1ccccc1
- pIC50 [5]: < 4.00
- pIC50 [1]: < 4.00

- pEC50 [3]: 4.57
Structure (SMILES): O=C(CCCc1ccc(-c2cccnc2)s1)NCc1ccc(O)cc1
- pIC50 [1]: < 4.30

- pEC50 [3]: 4.73
Structure (SMILES): COc1cc(CNC(=O)CCCc2ccc(-c3ccccc3)s2)ccc1O
- pIC50 [1]: 4.47
- pIC50 [8]: 4.56
- pIC50 [9]: 4.86

- pEC50 [4]: < 5.00
- Efficacy [6]: < 10%
- Activity [7]: inactive
Structure (SMILES): O=C(CCCc1ccc(-c2cccnc2)s1)NCc1ccccc1
- pIC50 [5]: < 4.00
- pIC50 [1]: < 4.00
